pIC50: −log10 of the molar value. Read-outs that look alike come from different tables or passages of the source.
Legend:
Type in all cases: biochemical
KDM2B (FBXL10) = molecular target: T1, KDM2B (FBXL10) (Homo sapiens, UniProt Q8NHM5); test: Histone lysine demethylase AlphaLISA assay, KDM2B
T1 construct: KDM2B; BPS,; 1-650; Bac; purchased BPS Bioscience, US; host or cells: baculovirus system
T1 sequence (Q8NHM5 1-650): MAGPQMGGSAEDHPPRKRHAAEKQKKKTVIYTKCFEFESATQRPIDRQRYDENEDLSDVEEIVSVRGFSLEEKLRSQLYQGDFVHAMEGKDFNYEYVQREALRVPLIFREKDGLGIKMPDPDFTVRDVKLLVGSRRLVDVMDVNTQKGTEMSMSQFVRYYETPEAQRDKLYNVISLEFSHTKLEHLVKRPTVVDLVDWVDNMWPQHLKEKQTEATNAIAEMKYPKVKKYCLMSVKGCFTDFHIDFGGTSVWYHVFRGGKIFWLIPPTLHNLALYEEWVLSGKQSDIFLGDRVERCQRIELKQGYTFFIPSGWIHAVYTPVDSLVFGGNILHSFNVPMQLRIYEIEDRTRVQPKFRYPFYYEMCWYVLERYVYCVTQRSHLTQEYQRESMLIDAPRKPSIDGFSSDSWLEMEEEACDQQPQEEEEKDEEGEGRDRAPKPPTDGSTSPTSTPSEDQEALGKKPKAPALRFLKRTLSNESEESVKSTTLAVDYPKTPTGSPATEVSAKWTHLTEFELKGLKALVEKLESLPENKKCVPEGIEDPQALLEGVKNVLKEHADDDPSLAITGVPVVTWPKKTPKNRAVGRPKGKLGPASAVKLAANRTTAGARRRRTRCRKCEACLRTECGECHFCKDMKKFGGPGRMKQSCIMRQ
Summary of the method: (§1)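 In vitro demethylase inhibition measured by AlphaLISA. Enzymes preincubated with compound 10 minutes in 50 mM Hepes (pH 7.4-8.0), 0.003-0.01% Tween-20, 0.1% BSA, 5 μM (NH4)2Fe(SO4)2 before substrate addition at room temperature.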

KDM5B (PLU-1) = molecular target: T2, KDM5B (PLU-1) (Homo sapiens, UniProt Q9UGL1); test: Histone lysine demethylase AlphaLISA assay, KDM5B
T2 construct: BRIC; 1-809; E. coli; host or cells: E. coli
T2 sequence (Q9UGL1 1-809): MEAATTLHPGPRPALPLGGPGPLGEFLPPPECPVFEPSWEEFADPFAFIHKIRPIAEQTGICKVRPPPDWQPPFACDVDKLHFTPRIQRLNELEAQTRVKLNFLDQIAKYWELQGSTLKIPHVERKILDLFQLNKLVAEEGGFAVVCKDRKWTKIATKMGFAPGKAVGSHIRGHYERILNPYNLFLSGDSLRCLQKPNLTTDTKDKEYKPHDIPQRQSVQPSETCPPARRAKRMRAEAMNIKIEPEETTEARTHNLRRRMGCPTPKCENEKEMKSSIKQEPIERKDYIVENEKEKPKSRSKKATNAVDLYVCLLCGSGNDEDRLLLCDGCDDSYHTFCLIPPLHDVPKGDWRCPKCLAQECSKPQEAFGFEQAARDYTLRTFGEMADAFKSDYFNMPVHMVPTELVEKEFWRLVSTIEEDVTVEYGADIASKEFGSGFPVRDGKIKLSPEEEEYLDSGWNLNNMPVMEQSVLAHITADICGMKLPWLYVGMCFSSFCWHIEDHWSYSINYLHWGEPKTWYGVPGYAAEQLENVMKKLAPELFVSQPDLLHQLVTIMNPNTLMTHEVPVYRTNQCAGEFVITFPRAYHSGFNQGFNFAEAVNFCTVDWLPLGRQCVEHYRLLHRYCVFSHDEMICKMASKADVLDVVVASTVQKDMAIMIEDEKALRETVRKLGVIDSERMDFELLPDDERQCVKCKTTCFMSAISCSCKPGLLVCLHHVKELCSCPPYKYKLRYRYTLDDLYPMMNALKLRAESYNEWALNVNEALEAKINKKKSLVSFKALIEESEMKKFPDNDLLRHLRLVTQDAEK
Summary of the method: as §1

KDM4C (JMJD2C) = molecular target: T3, KDM4C (JMJD2C) (Homo sapiens, UniProt Q9H3R0); test: Histone lysine demethylase AlphaLISA assay, KDM4C
T3 construct: KDM4C; BRIC, Denmark; 1-349; E. coli; host or cells: E. coli
T3 sequence (Q9H3R0 1-349): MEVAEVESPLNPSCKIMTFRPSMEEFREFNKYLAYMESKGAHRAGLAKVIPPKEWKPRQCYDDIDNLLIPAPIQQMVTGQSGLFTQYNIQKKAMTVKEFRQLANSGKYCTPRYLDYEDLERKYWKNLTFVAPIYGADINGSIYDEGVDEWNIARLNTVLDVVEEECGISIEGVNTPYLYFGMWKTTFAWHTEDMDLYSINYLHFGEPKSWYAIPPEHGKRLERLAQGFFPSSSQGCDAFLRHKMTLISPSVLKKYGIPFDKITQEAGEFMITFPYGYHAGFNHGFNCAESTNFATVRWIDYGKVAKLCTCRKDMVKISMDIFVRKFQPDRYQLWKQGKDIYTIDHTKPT
Summary of the method: as §1

PHF8 (KDM7) = molecular target: T4, PHF8 (KDM7) (Homo sapiens, UniProt Q9UPP1); test: Histone lysine demethylase AlphaLISA assay, PHF8
T4 construct: KDM7 (PHF8); BRIC; 1-1322; Bac
Summary of the method: as §1

[1] = AlphaLISA, in vitro, read-out: HDME Inhibition KDM2B
[2] = AlphaLISA assay, read-out: HDME Inhibition KDM5B (IC50)
[3] = AlphaLISA, in vitro, read-out: HDME Inhibition KDM5B
[4] = AlphaLISA assay, read-out: HDME Inhibition KDM4C (IC50)
[5] = AlphaLISA, in vitro, read-out: HDME Inhibition KDM4C
[6] = AlphaLISA, in vitro, read-out: HDME Inhibition PHF8
[7] = AlphaLISA assay, read-out: HDME Inhibition PHF8 (IC50)

SMILES | pIC50 (KDM2B (FBXL10); [1]) | pIC50 (KDM5B (PLU-1); [2]) | pIC50 (KDM5B (PLU-1); [3]) | pIC50 (KDM4C (JMJD2C); [4]) | pIC50 (KDM4C (JMJD2C); [5]) | pIC50 (PHF8 (KDM7); [6]) | pIC50 (KDM5B (PLU-1)) | pIC50 (PHF8 (KDM7); [7]) | pIC50 (KDM2B (FBXL10); AlphaLISA assay, read-out: HDME Inhibition KDM2B (IC50))
O=C(O)c1cc(CO)nc(CNCc2nnc(Cc3cccs3)n2Cc2ccc(F)cc2)c1 [Compound 71, 2-{[({4-[(4-Fluorophenyl)methyl]-5-(thiophen-2-ylmethyl)-4H-1,2,4-triazol-3-yl}methyl)amino]methyl}-6-(hydroxymethyl)pyridine-4-carboxylic acid] | 6.86 | < 5.00 | < 5.00 | < 5.00 | < 5.00 | 5.75 | – | – | –
CCCc1nnc(CNCc2cc(C(=O)O)cc(CO)n2)n1Cc1ccc(F)cc1 [Compound 73, 2-{[({4-[(4-fluorophenyl)methyl]-5-propyl-4H-1,2,4-triazol-3-yl}methyl)amino]methyl}-6-(hydroxymethyl)pyridine-4-carboxylic acid] | 6.60 | < 5.00 | < 5.00 | < 5.00 | < 5.00 | 5.78 | – | – | –
CCc1nnc(CNCc2cc(C(=O)O)cc(CO)n2)n1CCCC(C)C [Compound 94, 2-[({[5-ethyl-4-(4-methylpentyl)-4H-1,2,4-triazol-3-yl]methyl}amino)methyl]-6-(hydroxymethyl)pyridine-4-carboxylic acid] | 7.33 | < 5.00 | < 5.00 | < 5.00 | < 5.00 | 5.69 | – | – | –
Cc1cc(C(=O)O)cc(CNCc2nncn2CCCc2ccccc2)n1 [Compound 56] | 6.32 | < 5.00 | < 5.00 | < 5.00 | < 5.00 | 6.05 | – | – | –
C=C(C)c1cnc(CNCc2cc(C(=O)O)cc(C)n2)n1Cc1ccc(F)cc1 [Compound 103, 2-{[({1-[(4-fluorophenyl)methyl]-5-(prop-1-en-2-yl)-1H-imidazol-2-yl}methyl)amino]methyl}-6-methylpyridine-4-carboxylic acid] | 7.25 | < 5.00 | < 5.00 | < 5.00 | < 5.00 | 6.80 | – | – | –
CCc1nnc(CNCc2cc(C(=O)O)cc(C)n2)n1C/C=C/c1ccccc1 [Compound 68, 2-{[({5-ethyl-4-[(2E)-3-phenylprop-2-en-1-yl]-4H-1,2,4-triazol-3-yl}methyl)amino]methyl}-6-methylpyridine-4-carboxylic acid] | 5.77 | < 5.00 | < 5.00 | < 5.00 | < 5.00 | 5.75 | – | – | –
O=Cc1cn(Cc2ccc(F)cc2)c(CNCc2cc(C(=O)O)cc(CO)n2)n1 [Compound 111, 2-{[({1-[(4-fluorophenyl)methyl]-4-formyl-1H-imidazol-2-yl}methyl)amino]methyl}-6-(hydroxymethyl)pyridine-4-carboxylic acid] | 6.08 | – | – | < 5.00 | < 5.00 | 5.29 | 5.97 | – | –
CCN(CCN(C)C)C(=O)CNCc1cc(C(=O)O)cc(C)n1 [Compound 98, 2-{[({[2-(dimethylamino)ethyl](ethyl)carbamoyl}methyl)amino]methyl}-6-methylpyridine-4-carboxylic acid] | 6.28 | – | 8.10 | – | 5.78 | < 5.00 | – | < 5.00 | –
Cc1cc(C(=O)O)cc(CNCc2nnc(C(C)O)n2Cc2ccc(F)cc2)n1 (stereo not shown) [Compound 85, 2-{[({4-[(4-fluorophenyl)methyl]-5-(1-hydroxyethyl)-4H-1,2,4-triazol-3-yl}methyl)amino]methyl}-6-methylpyridine-4-carboxylic acid] | 6.34 | < 5.00 | < 5.00 | < 5.00 | < 5.00 | 5.73 | – | – | –
O=C(O)c1cc(CO)nc(CNCc2nncn2Cc2ccc(F)cc2)c1 [Compound 62, 2-{[({4-[(4-fluorophenyl)methyl]-4H-1,2,4-triazol-3-yl}methyl)amino]methyl}-6-(hydroxymethyl)pyridine-4-carboxylic acid] | 6.61 | – | – | – | 5.13 | 6.51 | 6.64 | – | –
Cc1cc(C(=O)O)cc(CNCc2nnc(C(C)(C)C)n2Cc2ccc(F)cc2)n1 [Compound 49, 2-{[({5-tert-butyl-4-[(4-fluorophenyl)methyl]-4H-1,2,4-triazol-3-yl}methyl)amino]methyl}-6-methylpyridine-4-carboxylic acid] | 6.08 | < 5.00 | < 5.00 | < 5.00 | < 5.00 | 5.96 | – | – | –
CC(C)Cc1ccc(OCc2ccccc2)nc1CNCc1cc(C(=O)O)cc(CO)n1 [Compound 97, 2-[({[6-(benzyloxy)-3-(2-methylpropyl)pyridin-2-yl]methyl}amino)methyl]-6-(hydroxymethyl)pyridine-4-carboxylic acid] | 6.51 | < 5.00 | < 5.00 | < 5.00 | < 5.00 | < 5.00 | – | < 5.00 | –
Cc1nnc(CNCc2cc(C(=O)O)cc(CO)n2)n1CCCC(C)C [Compound 70, 2-(hydroxymethyl)-6-[({[5-methyl-4-(4-methylpentyl)-4H-1,2,4-triazol-3-yl]methyl}amino)methyl]pyridine-4-carboxylic acid] | 6.31 | – | – | < 5.00 | < 5.00 | 5.76 | 6.25 | – | –
NCc1cc(C(=O)O)cc(CN)n1 [Compound 110, 2,6-bis(aminomethyl)pyridine-4-carboxylic acid] | < 5.00 | < 5.00 | < 5.00 | < 5.00 | < 5.00 | < 5.00 | – | < 5.00 | < 5.00
CCn1cnc2cc(Cn3cnnc3CNCc3cc(C(=O)O)cc(C)n3)ccc21 [Compound 41, 2-{[({4-[(1-ethyl-1H-1,3-benzodiazol-5-yl)methyl]-4H-1,2,4-triazol-3-yl}methyl)amino]methyl}-6-methylpyridine-4-carboxylic acid] | 5.78 | < 5.00 | < 5.00 | < 5.00 | < 5.00 | 5.18 | – | – | –
CCc1cnc(CNCc2cc(C(=O)O)cc(C)n2)n1CCCc1ccccc1 [Compound 108, 2-[({[5-ethyl-1-(3-phenylpropyl)-1H-imidazol-2-yl]methyl}amino)methyl]-6-methylpyridine-4-carboxylic acid] | 6.88 | < 5.00 | < 5.00 | < 5.00 | < 5.00 | 6.06 | – | – | –

Reference: US9802941B2, “Compounds and methods for inhibiting histone demethylases” (Gilead Sciences, Inc., priority 2014, dated 2017)
